The record followed here is PMC4684214, “Timberol® Inhibits TAAR5-Mediated Responses to Trimethylamine and Influences the Olfactory Threshold in Humans” (PLoS ONE, 2015).

In the assay the target is T1, hOR51E1 (Homo sapiens, UniProt Q8TCB6).
T1 construct: gene OR51E1; recombinant receptor plasmid transfected in HANA3A cells; with G-alpha-olf, RTP1S and M3 muscarinic receptor
T1 sequence (Q8TCB6 1-318): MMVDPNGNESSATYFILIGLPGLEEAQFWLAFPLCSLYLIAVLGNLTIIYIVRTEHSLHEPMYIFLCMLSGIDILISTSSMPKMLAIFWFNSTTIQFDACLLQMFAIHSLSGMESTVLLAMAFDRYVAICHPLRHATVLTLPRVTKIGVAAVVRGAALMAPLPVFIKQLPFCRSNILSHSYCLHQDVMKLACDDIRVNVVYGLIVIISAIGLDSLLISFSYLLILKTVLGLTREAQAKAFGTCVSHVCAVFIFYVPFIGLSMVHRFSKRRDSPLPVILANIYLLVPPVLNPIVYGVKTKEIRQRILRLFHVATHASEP
Kind of assay: Cre-luciferase reporter gene assay (cAMP). The assay is classed as cell-based. The note with it: agonist; M3 muscarinic receptor co-expressed; 37°C, 4 h. An excerpt:
Cre-luciferase reporter gene assay (cAMP) on hOR51E1 | (B) nonanoic acid and hOR51E1

As to `CCCCCCCCC(=O)O` [nonanoic acid], the half-maximal effective concentration (EC50) turned out to be 103 ± 23.1 µM.

As a reminder, the EC50 is the concentration at which the effect is half-maximal. A higher EC50 goes with weaker potency.
